Laboratory results: ChEMBL document CHEMBL1201862, “PubChem BioAssay data set” (2004)
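How tested: cells in 96-well plates exposed to compound for 48 hours at five concentrations. Abbreviation: GI50, concentration required for 50% inhibition of growth.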 Activity calls are given as the source filed them. No stated cut-off is given here; in the data, active = GI50 up to about 1.1 µM and inactive = higher. *1 amine or outer side, *2 acyl side, *3 side chain or, on linkers, in order; H or OH if unused. Where a SMILES comes first, the peptide text is derived from it. [ ]: non-standard residue; d: D form. The star is where a group is joined. X31 = CC(=O)N(C)SCC(N[*:1])C(=O)[*:2]; Fmoc = O=C(OCC1c2ccccc2-c2ccccc21)*; For = O=C*

Tests used:
Experiment in all cases: growth of human tumour cells (NCI), 48 h
786-0 = tested on: 786-0
A549 = tested on: A549
ACHN = tested on: ACHN
DU-145 = tested on: DU-145
HCC 2998 = tested on: HCC 2998
HOP-92 = tested on: HOP-92
KM12 = tested on: KM12
LOX IMVI = tested on: LOX IMVI
MDA-MB-231 = tested on: MDA-MB-231
MOLT-4 = tested on: MOLT-4
Malme-3M = tested on: Malme-3M
NCI-H23 = tested on: NCI-H23
OVCAR-8 = tested on: OVCAR-8
SF-295 = tested on: SF-295
SF-539 = tested on: SF-539
SK-MEL-28 = tested on: SK-MEL-28
SK-MEL-5 = tested on: SK-MEL-5
SNB-19 = tested on: SNB-19
SR = tested on: SR
UO-31 = tested on: UO-31

Measured: GI50

C=C1CC(CNc2cc(Cl)nc(N)n2)C1
inactive: 786-0 > 100 µM | A549 > 100 µM | ACHN > 100 µM | DU-145 > 100 µM | HCC 2998 > 100 µM | HOP-92 78.2 µM | KM12 > 100 µM | LOX IMVI > 100 µM | MDA-MB-231 > 100 µM | MOLT-4 > 100 µM | Malme-3M > 100 µM | NCI-H23 > 100 µM | OVCAR-8 > 100 µM | SF-295 > 100 µM | SF-539 > 100 µM | SK-MEL-28 > 100 µM | SK-MEL-5 50.5 µM | SNB-19 > 100 µM | SR > 100 µM | UO-31 > 100 µM

CCCCCCc1cc2cc(-c3csc(CC#N)n3)c(=O)oc2cc1O
inactive: 786-0 7.62 µM | A549 > 100 µM | ACHN 21.9 µM | DU-145 > 100 µM | HCC 2998 > 100 µM | HOP-92 7.48 µM | KM12 22.5 µM | LOX IMVI > 100 µM | MDA-MB-231 11.7 µM | MOLT-4 43.1 µM | Malme-3M > 100 µM | NCI-H23 22.1 µM | OVCAR-8 13 µM | SF-295 36.6 µM | SF-539 5.71 µM | SK-MEL-28 > 100 µM | SK-MEL-5 32.7 µM | SNB-19 14.4 µM | SR > 56.6 µM | UO-31 27 µM

O=C(NCCCN1CCN(CCCNC(=O)c2cc(-c3ccccc3)nc3ccccc23)CC1)c1cc(-c2ccccc2)nc2ccccc12
inactive: 786-0 7.11 µM | A549 20.6 µM | ACHN 15.4 µM | DU-145 29.8 µM | HCC 2998 2.88 µM | HOP-92 5.6 µM | KM12 26.3 µM | LOX IMVI 2.86 µM | MDA-MB-231 26.1 µM | MOLT-4 14 µM | Malme-3M 1.59 µM | NCI-H23 37.3 µM | OVCAR-8 12.2 µM | SF-295 12.3 µM | SF-539 15.2 µM | SK-MEL-28 2.05 µM | SK-MEL-5 2.02 µM | SNB-19 14.1 µM | SR 3.37 µM | UO-31 9.18 µM

CCOC(=O)CCC(NC(=O)OCc1ccccc1)C(=O)NNC(=O)OC(C)(C)C (stereo not given)
inactive: 786-0 > 100 µM | A549 > 100 µM | ACHN > 100 µM | DU-145 > 100 µM | HCC 2998 > 100 µM | HOP-92 > 100 µM | KM12 > 100 µM | LOX IMVI > 100 µM | MDA-MB-231 41.7 µM | MOLT-4 > 100 µM | Malme-3M > 100 µM | NCI-H23 > 100 µM | OVCAR-8 > 100 µM | SF-295 > 100 µM | SF-539 > 100 µM | SK-MEL-28 > 100 µM | SK-MEL-5 > 100 µM | SNB-19 > 100 µM | SR > 100 µM | UO-31 > 100 µM

COc1ccccc1NC1=NCC(C)S1 (stereo not given)
inactive: 786-0 > 100 µM | A549 > 100 µM | ACHN > 100 µM | DU-145 > 100 µM | HCC 2998 > 100 µM | HOP-92 > 100 µM | KM12 > 100 µM | LOX IMVI > 100 µM | MDA-MB-231 > 100 µM | MOLT-4 > 100 µM | Malme-3M > 100 µM | NCI-H23 > 100 µM | OVCAR-8 > 100 µM | SF-295 > 100 µM | SF-539 > 100 µM | SK-MEL-28 > 100 µM | SK-MEL-5 > 100 µM | SNB-19 > 100 µM | SR > 100 µM | UO-31 > 100 µM

Cc1cc2nc(-c3c(F)cccc3F)n(Cc3c(F)cccc3F)c2cc1C
inactive: 786-0 17.9 µM | A549 12.1 µM | ACHN 14.3 µM | DU-145 23.6 µM | HCC 2998 9.71 µM | HOP-92 12.7 µM | KM12 14.8 µM | LOX IMVI 14.3 µM | MDA-MB-231 14 µM | MOLT-4 13.1 µM | Malme-3M 27.9 µM | NCI-H23 19.6 µM | OVCAR-8 13.5 µM | SF-295 13.4 µM | SF-539 18.5 µM | SK-MEL-28 16.6 µM | SK-MEL-5 13.6 µM | SNB-19 19.5 µM | SR 11.3 µM | UO-31 11.1 µM

CC1(C)CCCCCCC2OC2CCCCCC(C)(C)C1=O (stereo not given)
inactive: 786-0 39.3 µM | A549 39.3 µM | ACHN 30.8 µM | DU-145 > 71.1 µM | HCC 2998 40.6 µM | HOP-92 27 µM | KM12 27.8 µM | LOX IMVI > 67.8 µM | MDA-MB-231 29.9 µM | MOLT-4 24 µM | Malme-3M > 53.8 µM | NCI-H23 57.7 µM | OVCAR-8 44.4 µM | SF-295 31.2 µM | SF-539 > 94.8 µM | SK-MEL-28 65.2 µM | SK-MEL-5 22.3 µM | SNB-19 > 89.3 µM | SR 27.5 µM | UO-31 25.5 µM

CC(C)=CCC[C@@H](C)C1=C(O)C(=O)C(C)=C(Nc2ccccc2)C1=O
inactive: 786-0 25.3 µM | A549 16.9 µM | ACHN 13.5 µM | DU-145 24.2 µM | HCC 2998 45.1 µM | HOP-92 23.5 µM | KM12 22.8 µM | LOX IMVI 20.6 µM | MDA-MB-231 22.5 µM | MOLT-4 6.82 µM | Malme-3M 17.8 µM | NCI-H23 24.9 µM | OVCAR-8 9.18 µM | SF-295 5.77 µM | SF-539 26 µM | SK-MEL-28 43 µM | SK-MEL-5 17.6 µM | SNB-19 31.4 µM | SR 28 µM | UO-31 14.5 µM

CC(=O)N(C)SCC(NC(=O)C(Cc1ccccc1)NC(=O)OCC1c2ccccc2-c2ccccc21)C(=O)NC(Cc1ccccc1)C(=O)NC(Cc1cn(C=O)c2ccccc12)C(=O)NC(CCCCNC(=O)OCC1c2ccccc2-c2ccccc21)C(=O)NC(C(=O)NC(CSN(C)C(C)=O)C(=O)NC(C(N)=O)C(C)O)C(C)O (stereo not given) (Fmoc-F[X31]FW(For)K(Fmoc)T[X31]T-NH2; configuration not given here)
inactive: 786-0 > 100 µM | A549 > 100 µM | ACHN 37 µM | DU-145 > 100 µM | HCC 2998 > 100 µM | HOP-92 14.5 µM | KM12 19.8 µM | LOX IMVI > 100 µM | MDA-MB-231 14.9 µM | MOLT-4 > 100 µM | Malme-3M > 100 µM | NCI-H23 20.8 µM | OVCAR-8 > 100 µM | SF-295 89.5 µM | SF-539 > 100 µM | SK-MEL-28 > 100 µM | SK-MEL-5 55.1 µM | SNB-19 75.5 µM | SR 76.9 µM | UO-31 16.2 µM
